Where “and” joins values, the source holds several entries; their conditions need not be identical. Equal values may be shown once. Inconclusive results and toxic doses are left out. The calls were made as follows: active = survival T/C of 150% or more; inactive = T/C below 125% in these data.
Test system: P388 leukemia ip, CD2F1 mice, survival T/C
Test: NCI In Vivo Anticancer Drug Screen. Data for tumor model P388 Leukemia (intraperitoneal) in CD2F1 (CDF1) mice
Settings: endpoint: median survival time, higher = longer survival
Method in brief: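 Mice carrying the transplanted tumor received test compound or vehicle. Survival was recorded in each group, and the value is the treated-group measurement divided by that of the vehicle-treated control group.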

[1] = dose: 50.0 mg/kg/injection, schedule: Q01DX005 (ip), vehicle: Klucel (hydroxypropylcellulose) (HPC)
[2] = dose: 100.0 mg/kg/injection, schedule: Q01DX005 (ip), vehicle: Klucel (hydroxypropylcellulose) (HPC)
[3] = dose: 200.0 mg/kg/injection, schedule: Q01DX005 (ip), vehicle: Klucel (hydroxypropylcellulose) (HPC)
[4] = dose: 50.0 mg/kg/injection, schedule: Q01DX005 (ip), vehicle: saline
[5] = dose: 200.0 mg/kg/injection, schedule: Q01DX005 (ip), vehicle: saline

Measured: T/C

O=C1SC/C(=N\N=c2/scc(-c3ccccc3)n2-c2ccccc2)N1Cc1ccccc1
inactive: dose: 100.0 mg/kg/injection, schedule: Q04DX002 (ip), vehicle: Klucel (hydroxypropylcellulose) (HPC) 90 % of control | dose: 200.0 mg/kg/injection, schedule: Q04DX002 (ip), vehicle: Klucel (hydroxypropylcellulose) (HPC) 91 % of control | dose: 400.0 mg/kg/injection, schedule: Q04DX002 (ip), vehicle: Klucel (hydroxypropylcellulose) (HPC) 88 % of control

CCC1(O)CC(OC2CC(O)C(O)CO2)c2c(O)c3c(c(O)c2C1C(=O)OC)C(=O)c1cccc(O)c1C3=O (stereo not given)
inactive: dose: 1.56 mg/kg/injection, schedule: Q01DX009 (ip), vehicle: other 90 % of control | dose: 3.13 mg/kg/injection, schedule: Q01DX009 (ip), vehicle: other 88 % of control | dose: 6.25 mg/kg/injection, schedule: Q01DX009 (ip), vehicle: other 101 % of control | dose: 12.5 mg/kg/injection, schedule: Q01DX009 (ip), vehicle: other 115 % of control | dose: 25.0 mg/kg/injection, schedule: Q01DX009 (ip), vehicle: other 92 % of control

COc1cc(C(=O)C(C=O)c2ccccc2)c([N+](=O)[O-])cc1OC (stereo not given)
inactive: [1] 94 % of control | [2] 98 % of control | [3] 92 % of control

CC(C)CCNc1ncnc2[nH]ncc12
inactive: dose: 25.0 mg/kg/injection, schedule: Q04DX003 (ip), vehicle: saline with Tween-80 95 % of control | dose: 50.0 mg/kg/injection, schedule: Q04DX003 (ip), vehicle: saline with Tween-80 95 % of control | dose: 100.0 mg/kg/injection, schedule: Q04DX003 (ip), vehicle: saline with Tween-80 100 % of control

C=C1C(=O)O[C@H]2C1[C@H](OC(=O)/C(C)=C\C)CC(=C)[C@@H]1C(=O)[C@H]3O[C@@]3(C)[C@@]12O (stereo not given in full)
inactive: dose: 12.5 mg/kg/injection, schedule: Q01DX005 (ip), vehicle: saline + alcohol 116 % of control and 117 % of control | dose: 25.0 mg/kg/injection, schedule: Q01DX005 (ip), vehicle: saline + alcohol 110 % of control and 121 % of control

Cc1nc2ccccc2c(=O)n1-c1ccc(-c2nnc(Sc3nnc(-c4ccc(-n5c(C)nc6ccccc6c5=O)cc4)n3-c3ccccc3)n2-c2ccccc2)cc1
inactive: [1] 102 % of control | [2] 101 % of control | [3] 90 % of control

COc1ccc(/C(C#N)=C\c2ccnc3ccccc23)cc1
inactive: dose: 1.56 mg/kg/injection, schedule: Q01DX009 (ip), vehicle: distilled water + Tween-80 103 % of control | dose: 3.13 mg/kg/injection, schedule: Q01DX009 (ip), vehicle: distilled water + Tween-80 94 % of control | dose: 6.25 mg/kg/injection, schedule: Q01DX009 (ip), vehicle: distilled water + Tween-80 93 % of control | dose: 12.5 mg/kg/injection, schedule: Q01DX009 (ip), vehicle: distilled water + Tween-80 94 % of control | dose: 25.0 mg/kg/injection, schedule: Q01DX009 (ip), vehicle: distilled water + Tween-80 91 % of control

Cc1cc(C)nc(NS(=O)(=O)c2ccc(N=c3c4ccccc4n(-c4ccccc4)c4ccccc34)cc2)n1
inactive: dose: 50.0 mg/kg/injection, schedule: Q01DX005 (ip), vehicle: saline with Tween-80 97 % of control | dose: 100.0 mg/kg/injection, schedule: Q01DX005 (ip), vehicle: saline with Tween-80 109 % of control | dose: 200.0 mg/kg/injection, schedule: Q01DX005 (ip), vehicle: saline with Tween-80 90 % of control

OCC1OC(n2cnc3c2NC=NC[C@H]3O)C(O)C1O (stereo not given in full)
inactive: dose: 0.1 mg/kg/injection, schedule: Q01DX009 (ip), vehicle: saline 106 % of control | dose: 0.2 mg/kg/injection, schedule: Q01DX005 (ip), vehicle: saline 104 % of control | dose: 0.2 mg/kg/injection, schedule: Q01DX009 (ip), vehicle: saline 111 % of control | dose: 0.4 mg/kg/injection, schedule: Q01DX005 (ip), vehicle: saline 107 % of control | dose: 0.4 mg/kg/injection, schedule: Q01DX009 (ip), vehicle: saline 103 % of control | dose: 0.78 mg/kg/injection, schedule: Q01DX005 (ip), vehicle: saline 99 % of control | dose: 0.8 mg/kg/injection, schedule: Q01DX005 (ip), vehicle: saline 100 % of control | dose: 1.56 mg/kg/injection, schedule: Q01DX005 (ip), vehicle: saline 97 % of control

C=C(COC(C)=O)[C@@H](C)C(=O)C1OCOC(C2CC(=O)NC(=O)C2)[C@@H]1OC(C)=O (stereo not given in full)
inactive: dose: 0.01 mg/kg/injection, schedule: Q01DX009 (ip), vehicle: distilled water + alcohol 98 % of control | dose: 0.03 mg/kg/injection, schedule: Q01DX009 (ip), vehicle: distilled water + alcohol 102 % of control | dose: 0.06 mg/kg/injection, schedule: Q01DX009 (ip), vehicle: distilled water + alcohol 102 % of control | dose: 0.12 mg/kg/injection, schedule: Q01DX009 (ip), vehicle: distilled water + alcohol 102 % of control

CCCCCCCC/C=C/CCCCCCCC(=O)N(CCOC(=O)C(C)(C)C)CCOC(=O)C(C)(C)C
inactive: dose: 50.0 mg/kg/injection, schedule: Q01DX009 (ip), vehicle: Klucel (hydroxypropylcellulose) (HPC) 104 % of control | dose: 100.0 mg/kg/injection, schedule: Q01DX009 (ip), vehicle: Klucel (hydroxypropylcellulose) (HPC) 112 % of control | dose: 200.0 mg/kg/injection, schedule: Q01DX009 (ip), vehicle: Klucel (hydroxypropylcellulose) (HPC) 111 % of control

COc1ccc(N2C(=O)C(N=Nc3ccc(S(=O)(=O)Nc4ncccn4)cc3)C(=O)N(c3ccccc3)C2=S)cc1 (stereo not given)
inactive: [4] 103 % of control | dose: 100.0 mg/kg/injection, schedule: Q01DX005 (ip), vehicle: saline 95 % of control | [5] 98 % of control

CCOC(=O)c1cnc2cc(C)cc(C)c2c1Nc1ccc2c(c1)OCO2
inactive: dose: 60.0 mg/kg/injection, schedule: Q01DX005 (ip), vehicle: Klucel + Tween-80 100 % of control | dose: 120.0 mg/kg/injection, schedule: Q01DX005 (ip), vehicle: Klucel + Tween-80 92 % of control | dose: 240.0 mg/kg/injection, schedule: Q01DX005 (ip), vehicle: Klucel + Tween-80 87 % of control

CC1(C)CC(N2CCN(CCO)CC2)=CC(=S)N1
inactive: [1] 103 % of control | [2] 93 % of control | [3] 104 % of control

O=C(O)CC[P+](c1ccccc1)(c1ccccc1)c1ccccc1
inactive: dose: 25.0 mg/kg/injection, schedule: Q01DX009 (ip), vehicle: water 105 % of control | dose: 50.0 mg/kg/injection, schedule: Q01DX009 (ip), vehicle: water 102 % of control | dose: 100.0 mg/kg/injection, schedule: Q01DX009 (ip), vehicle: water 105 % of control | dose: 200.0 mg/kg/injection, schedule: Q01DX009 (ip), vehicle: water 95 % of control | dose: 400.0 mg/kg/injection, schedule: Q01DX009 (ip), vehicle: water 94 % of control

CCOc1cc(/C=C2\SC(=O)N(CC)C2=O)ccc1O
inactive: dose: 50.0 mg/kg/injection, schedule: Q01DX009 (ip), vehicle: saline with Tween-80 108 % of control | dose: 100.0 mg/kg/injection, schedule: Q01DX009 (ip), vehicle: saline with Tween-80 109 % of control | dose: 200.0 mg/kg/injection, schedule: Q01DX009 (ip), vehicle: saline with Tween-80 90 % of control

COc1c2c(c3c(c1CCC(=O)O)OC(C)(C)C=C3)OC(C)(C)C=C2
inactive: [1] 102 % of control | [2] 100 % of control | [3] 102 % of control

COC(=O)C1C(=O)COC1C (stereo not given)
inactive: [4] 102 % of control | [5] 102 % of control

O=C1c2c(Cl)c(Cl)c(Cl)c(Cl)c2C(=O)N1c1ccccc1-c1ccccc1
inactive: dose: 87.5 mg/kg/injection, schedule: Q01DX009 (ip), vehicle: saline with Tween-80 97 % of control | dose: 175.0 mg/kg/injection, schedule: Q01DX009 (ip), vehicle: saline with Tween-80 97 % of control | dose: 350.0 mg/kg/injection, schedule: Q01DX009 (ip), vehicle: saline with Tween-80 97 % of control

COC1C(CO)OC(Oc2ccc(C(=C3CCCCC3)c3ccc(O)cc3)cc2)C(O)C1O (stereo not given)
inactive: dose: 50.0 mg/kg/injection, schedule: Q01DX009 (ip), vehicle: saline 95 % of control | dose: 100.0 mg/kg/injection, schedule: Q01DX009 (ip), vehicle: saline 95 % of control | dose: 200.0 mg/kg/injection, schedule: Q01DX009 (ip), vehicle: saline 94 % of control

From PubChem BioAssay AID330 (DTP/NCI, 2004)
